Test results: patent US9873659B2, “Solutions of trialkali metal salts of MGDA with an excess of L-enantiomer, their manufacture and use” (BASF SE, priority 2014, dated 2018)

Key:
[1] = Solubility experiments: concentrated aqueous solutions stored and checked for crystallization or precipitation; assay type: physicochemical; details: for sign of crystallization or precipitation on storage: aqueous solution, 90 days at 20° C.; for solids content of the concentrated aqueous solution that stayed free of crystallization or precipitation: concentrated by evaporation of water at 70° C., cooled to ambient temperature, stable 90 days at 20° C.
Protocol: In each case, the solubility refers to MGDA without hydrate water.
It was allowed to cool down to ambient temperature.
The aqueous solution of MGDA-K2.35Na0.65 obtained according to I.4 was concentrated by evaporation of a part of the water at 70° C. until the solids content was 65% by weight. It was allowed to cool down to ambient temperature.

[2] = room temperature; colder solutions may lead to precipitation; cited from earlier work

solids content of the concentrated aqueous solution that stayed free of crystallization or precipitation [1] [% by weight] | Molecule | sign of crystallization or precipitation on storage ([1]; solids content 61.1% by weight) | sign of crystallization or precipitation on storage ([1]; solids content 64.5% by weight) | sign of crystallization or precipitation on storage ([1]; solids content 65% by weight) | concentration of aqueous solution that can be made and stored [2]
61.1 | MGDA-K2.35Na0.65 [MGDA-K2.35Na0.65 obtained according to I.3] | did not show any sign of crystallization or precipitation |  |  | 
64.5 | MGDA-K2.35Na0.65 [MGDA-K2.35Na0.65 obtained according to I.2] |  | did not show any sign of crystallization or precipitation |  | 
65 | MGDA-K2.35Na0.65 [MGDA-K2.35Na0.65 obtained according to I.4] |  |  | did not show any sign of crystallization or precipitation | 
 | CC(C(=O)[O-])N(CC(=O)[O-])CC(=O)[O-].[Na+].[Na+].[Na+] (racemic) [racemic MGDA trisodium salt] |  |  |  | about 40 % by weight
